Reference: US7238469B2, “Carbon monoxide improves outcomes in tissue and organ transplants and suppresses apoptosis” (priority 2001, dated 2007)

Experiments:
[1] = test system: VASP; test: VASP phosphorylation by Western blot in ECs; format: cell-based
Procedure: Cell extracts were prepared, electrophoresed under denaturing conditions (10–12.5% polyacrylamide gels), and transferred into polyvinyldifluoridine membranes (Immobilon P™; Millipore). HO-1 was detected using a rabbit anti-human HO-1 polyclonal antibody (StressGen Biotechnologies). Vasodilatator-stimulated phosphoprotein (VASP) was detected using a rabbit anti-human VASP polyclonal antibody (Calbiochem-Novabiochem). […] Primary antibodies were detected using horseradish peroxidase-conjugated donkey anti-rabbit or goat anti-mouse IgG secondary antibodies (Pierce Chemical Co.). Peroxidase was visualized using the enhanced chemiluminescence assay (Amersham Pharmacia Biotech) according to the manufacturer's instructions, and stored in the form of photoradiographs (Biomax™ MS; Eastman Kodak Co.). […] The amount of phosphorylated ERK, JNK, and p38 MAPK was quantified using ImageQuant® software (Molecular Dynamics). […] Phosphorylated ERK, JNK, and p38 MAPK were normalized to the total amount of total ERK, JNK, and p38 MAPK detected in the same membrane.
Most biological functions attributed to CO have been linked to its ability to bind guanylcyclase and increase the generation of cGMP. […] (B) Activation of guanylcyclase was monitored in BAECs by analyzing the phosphorylation of VASP. […] (D) Phosphorylation of VASP was analyzed by Western blot as described above in B. N.T., nontreated. […]

[2] = target: T1, p38 MAPK (Bos taurus, UniProt A6QLR9); format: cell-based, bovine; settings: BAECs; CO 10,000 ppm
T1 construct: endogenous in cells; host or cells: bovine aortic endothelial cells (BAEC)
T1 sequence (A6QLR9 1-360): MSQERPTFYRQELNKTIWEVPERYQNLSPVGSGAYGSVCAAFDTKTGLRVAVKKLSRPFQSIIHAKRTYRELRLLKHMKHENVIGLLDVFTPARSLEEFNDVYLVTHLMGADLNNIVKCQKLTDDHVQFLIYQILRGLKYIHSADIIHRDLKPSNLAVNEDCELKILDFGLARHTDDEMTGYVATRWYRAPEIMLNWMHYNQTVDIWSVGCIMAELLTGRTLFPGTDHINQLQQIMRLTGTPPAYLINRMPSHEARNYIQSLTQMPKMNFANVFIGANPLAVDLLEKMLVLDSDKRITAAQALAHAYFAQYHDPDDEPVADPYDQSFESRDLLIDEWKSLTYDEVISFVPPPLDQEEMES

[3] = test system: Brown Norway aortas transplanted into Lewis rats; test: Aortic transplant model (transplant-associated arteriosclerosis); format: in vivo, rat; settings: allogeneic recipients exposed to CO 250 ppm for 56 days
Procedure: Aortic transplantation was carried out done as described elsewhere (Plissonnier et al., Transplantation 60:414–424, 1995). […] After additional left thoracotomy, three or four pairs of the inter-costal arteries were ligated using 7-0 nylon suture (Keisei Medical Industrial Co., LTD, Tokyo, Japan), and 2 cm of the descending aorta was harvested. The graft was inserted between the renal arteries and the aortic bifurcation by standard microsurgery technique using 9-0 Nylon sutures (Ethilon™, Ethicon, Inc, Somerville, N.J.). The native abdominal aorta was left after both edges were ligated.
CO at a concentration of 1% (10,000 parts per million; ppm) in compressed air was mixed with balanced air (21% oxygen) as described previously (Otterbein et al., Am J Physiol 276(4 Pt 1):L688–L694, 1999). For the transplant model, graft donors were placed in the CO chamber two days before transplantation. Recipients were placed in the chamber immediately following transplantation and kept there 56 days. CO concentration was maintained at 250 ppm at all times.
Adult male (250–350 g) Brown Norway rats (RT1 were used as aortic graft donors and adult male (250–350 g) Lewis rats (RT1) as recipients (Charles River Lab. Wilmington, Mass.). Male C57BL/6, p21^−/− and p53^−/− null mice were purchased from Jackson Laboratory (Bar Harbor, Me.). The MKK3^(−/−) null mice were generated as previously described (Lu et al., EMBO. J. 18:1845–1857, 1999). Mice were allowed to acclimate for one week with rodent chow and water ad libitum.
Brown Norway aortas were transplanted into Brown Norway rats (syngeneic), untreated Lewis rats (allogeneic), or Lewis rats exposed to carbon monoxide (250 ppm; allogeneic with carbon monoxide). Samples were harvested 56 days after transplantation and stained by a modified elastic tissue-masson trichrome, or by eosin hematoxylin. Brown Norway aortic segments transplanted into Lewis rats developed arteriosclerotic lesions that are consistent with those associated with chronic graft rejection (data not shown). […]

[4] = water at 0° C.; cited from earlier work

Structure (SMILES)	VASP phosphorylation [1]	p38 MAPK activation [2]	accumulation of leukocytes into the adventitia [3]	intimal hyperplasia in aortic grafts [3]	loss of medial SMC [3]	saturation point [4]
Nc1nc2c(nc(Br)n2[C@@H]2O[C@@H]3COP(=O)(O)O[C@H]3[C@H]2O)c(=O)[nH]1 [8-Br-cGMP, 8-bromoguanosine-3′-5′-cyclic-monophosphate]	induce VASP phosphorylation					
[C-]#[O+] [CO, carbon monoxide]		activated p38 MAPK even in the absence of TNF-α	inhibited	inhibited	no significant effect on loss of medial SMC	about 0.0044 g CO/100 g medium
O=c1onc2cnc3ccccc3n12 [ODQ, 1H[1,2,4]oxadiazolo[4,3-α]quinoxalin-1]	prevent constitutive VASP phosphorylation					
